“And” between values parts separate entries of the source, which are not always exact repeats. Equal entries are not always repeated. Structures can show the parent of a compound that is named as a salt. Where two headings read alike, the source gives them in different places.
How the values were obtained:
[1] = cited from earlier work; for Half-lives (t1/2app): human, in vivo
[2] = cited from earlier work
[3] = system: mice; conditions: metabolites identified in urine; cited from earlier work
[4] = in vivo; cited from earlier work
[5] = rats; cited from earlier work
[6] = humans; cited from earlier work
[7] = rat; cited from earlier work
[8] = drug content of 80% saturated donor solution in propylene glycol; assay type: physicochemical; conditions: 80% of saturation, saturated at 32° C.
Protocol: For standardization, saturated solutions of bupropion in propylene glycol were made and 80% of the saturated solution was used as donor solutions. 1,100 mg bupropion has been suspended in 6.0 ml propylene glycol and was vortexed at 90 rpm for 68 hrs at 32° C. in a thermostated shaking cupboard. Controls have been done every 24 hrs to assure that sufficient undissolved drug was in the vessel. Thereafter the suspension was centrifuged (3,000 rpm) for 10 minutes and the clear supernatant was used as saturated solution.
For the diffusion experiments the donor solutions were freshly prepared for each experiment, 550 mg of the bupropion base were suspended in 3.0 ml propylene glycol (PG) and treated as previously described.
A spectroflow 400 pump (Separations, Hendrik Ido Ambacht, The Netherlands) was used to deliver the mobile phase, consisting of acetronitrile 0.1 m KF2 PO4 pH3 20:80 (v/v) with a flow rate of 0.8 ml/min. The mobile phase was degassed with a vacuum pump and chromatography was performed at ambient temperature. Sample amounts of 20 μl were injected with a Gilson model 321 autosampler (Gilson Middleton, Wisconsin USA) with a 20 microliter loop built in onto a inertsil 5 ODS column (Chrompack Nederland BV, Bergen op Zoom, The Netherlands). […] Bupropion base was detected by UV absorption at 310 nm using a spectra 100 spectrophometer (Spectra-Physics, Breda, The Netherlands). […]

[9] = system: albumin; conditions: cited from earlier work
[10] = mouse, cited from earlier work
[11] = dogs; cited from earlier work
[12] = dog, cited from earlier work
[13] = rats; cited from earlier work; remark: listed apart in the source
[14] = oral administration; cited from earlier work

C[C@H](NC(C)(C)C)[C@H](O)c1cccc(Cl)c1 (relative stereo) [EB]
Half-lives (t1/2app) [1]: 61.4 ± 21.6 h
quantifiability after oral dose ([2]; in vivo, po): not quantifiable
activity in mice [3]: have shown activity in mice

C[C@@H](NC(C)(C)C)[C@H](O)c1cccc(Cl)c1 (relative stereo) [TB]
Half-lives (t1/2app) [1]: 38.8 ± 7.6 h
kinetics relative to MM ([2]; in vivo, po): parallel that of MM
activity in mice [3]: have shown activity in mice
antidepressive effect potency relative to parent medicament [4]: half as parent medicament

C[C@H](NC(C)(C)CO)[C@H](O)c1cccc(Cl)c1 (relative stereo) [erythro amino diol]
quantifiability after oral dose ([2]; in vivo, po): not quantifiable
activity in mice [3]: have shown activity in mice

CC1NC(C)(C)COC1(O)c1cccc(Cl)c1 (centres unmarked) [HB]
AUC relative to medicament drug ([2]; single oral dose of bupropion): fifteen times
Cmax relative to medicament drug ([2]; single oral dose of bupropion): three times
speed of appearance in the systemic circulation relative to parent ([2]; single oral dose): almost as fast
activity in mice [3]: have shown activity in mice
antidepressive effect potency relative to parent medicament [4]: half as potent

CC(NC(C)(C)C)C(=O)c1cccc(Cl)c1 (centres unmarked) [bupropion hydrochloride]
extent of metabolism [5]: highly metabolized
extent of metabolism [6]: highly metabolized

CC(NC(C)(C)C)C(=O)c1cccc(Cl)c1 (centres unmarked) [bupropion]
induction of its own metabolism [7]: induces its own metabolism
drug content of 80% saturated solution [8]: 104 mg/ml PG
half-life change after multiple dosing ([1]; elderly patients, after multiple dosing): did not change significantly
first pass metabolism ([2]; in vivo): very rapid first pass metabolism
dose proportionality of drug blood concentration ([2]; oral dosage, 100 to 250 mgs): dose proportional from 100 to 250 mgs
biological half life ([2]; oral dosage): approximately 14 hours
biological half life, range ([2]; oral dosage): 8-24 hours
time at which Cmax occurs ([2]; oral dosage): approximately 2 hours
oral dose kinetics model ([2]; single oral dose): best described by a 2 compartment open model with first order absorption
bound to albumin [9]: 80%
reduction (induction of own metabolism) ([10]; over ten days): 58%
induction of its own metabolism [10]: induces its own metabolism
absolute bioavailability [11]: five to twenty
reductions (induction of own metabolism) ([12]; two different dose levels, over one year of treatment): 76% and 90%
induction of its own metabolism [12]: induces its own metabolism
absolute bioavailability [13]: five to twenty

CC(NC(C)(C)C)C(=O)c1cccc(Cl)c1 (centres unmarked) [carbon 14 bupropion]
excreted unchanged [14]: less than 0.5%
radioactivity recovered in the feces [14]: 10%
radioactivity recovered in the urine [14]: 87%
